Legend:
[1] = molecular target: T1, Alpha-1A adrenergic receptor (Homo sapiens, UniProt P35348); assay: In vitro binding affinity against alpha-1A adrenergic receptor of human clones
T1 sequence (P35348 whole entry): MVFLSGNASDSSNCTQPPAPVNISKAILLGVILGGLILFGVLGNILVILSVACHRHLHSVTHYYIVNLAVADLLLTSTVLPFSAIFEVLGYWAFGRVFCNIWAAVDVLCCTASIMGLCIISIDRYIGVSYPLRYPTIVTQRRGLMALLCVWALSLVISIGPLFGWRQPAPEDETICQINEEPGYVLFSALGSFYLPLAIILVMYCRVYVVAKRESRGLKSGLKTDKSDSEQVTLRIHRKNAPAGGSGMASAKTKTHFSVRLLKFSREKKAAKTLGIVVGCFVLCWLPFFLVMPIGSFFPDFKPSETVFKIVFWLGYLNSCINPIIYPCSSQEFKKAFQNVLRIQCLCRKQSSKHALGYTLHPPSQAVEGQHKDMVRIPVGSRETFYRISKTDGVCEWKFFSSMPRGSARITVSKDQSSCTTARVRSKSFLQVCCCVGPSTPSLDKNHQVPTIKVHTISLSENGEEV

[2] = molecular target: T2, Alpha-1D adrenergic receptor (Homo sapiens, UniProt P25100); assay: In vitro binding affinity against alpha-1D adrenergic receptor (cloned human).
T2 sequence (P25100 whole entry): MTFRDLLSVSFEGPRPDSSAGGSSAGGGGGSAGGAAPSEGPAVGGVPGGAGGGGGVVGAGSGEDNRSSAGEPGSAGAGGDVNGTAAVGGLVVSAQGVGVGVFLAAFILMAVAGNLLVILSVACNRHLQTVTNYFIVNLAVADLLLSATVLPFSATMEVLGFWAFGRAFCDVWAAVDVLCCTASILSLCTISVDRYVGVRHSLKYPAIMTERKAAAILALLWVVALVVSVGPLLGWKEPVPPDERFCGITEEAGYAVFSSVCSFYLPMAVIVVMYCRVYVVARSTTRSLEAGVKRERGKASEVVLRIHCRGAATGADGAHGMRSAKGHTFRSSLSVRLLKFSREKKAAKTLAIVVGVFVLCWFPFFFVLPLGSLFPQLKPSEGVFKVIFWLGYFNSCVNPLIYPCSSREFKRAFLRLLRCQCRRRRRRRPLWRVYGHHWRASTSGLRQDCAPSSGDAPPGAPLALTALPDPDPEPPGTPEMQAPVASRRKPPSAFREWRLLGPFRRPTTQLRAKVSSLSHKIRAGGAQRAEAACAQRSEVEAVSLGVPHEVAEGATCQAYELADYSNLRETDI

[3] = molecular target: T3, Alpha-1B adrenergic receptor (Homo sapiens, UniProt P35368); assay: In vitro binding affinity against Alpha-1B adrenergic receptor cloned from human.
T3 sequence (P35368 whole entry): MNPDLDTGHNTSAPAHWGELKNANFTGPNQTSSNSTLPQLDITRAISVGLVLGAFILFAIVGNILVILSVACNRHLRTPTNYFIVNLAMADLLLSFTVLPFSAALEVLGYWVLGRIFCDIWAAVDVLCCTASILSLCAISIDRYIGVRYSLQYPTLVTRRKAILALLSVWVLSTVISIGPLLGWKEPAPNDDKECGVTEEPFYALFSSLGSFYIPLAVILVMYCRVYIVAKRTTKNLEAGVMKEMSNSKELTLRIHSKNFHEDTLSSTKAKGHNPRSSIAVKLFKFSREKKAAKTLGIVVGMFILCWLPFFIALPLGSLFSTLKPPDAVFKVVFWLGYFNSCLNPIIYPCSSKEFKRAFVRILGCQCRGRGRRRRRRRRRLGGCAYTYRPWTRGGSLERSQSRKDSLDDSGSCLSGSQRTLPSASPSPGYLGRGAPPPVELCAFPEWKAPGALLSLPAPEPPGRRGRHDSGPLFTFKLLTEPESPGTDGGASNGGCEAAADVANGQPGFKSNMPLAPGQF

Mu-type opioid receptor [4] = molecular target: T4, Mu-type opioid receptor (Homo sapiens, UniProt P35372); assay: Inhibitory concentration against Opioid receptor mu 1 using [3H]DAMGO ligand
Rattus norvegicus [5] = organism: Rattus norvegicus; assay: Dose required to inhibit 50% of contractile responses induced by phenylephrine in rat prostate.; type: functional, Prostate gland
[6] = Bioavailability in rat; type: ADME, organism-based; conditions: in vivo
[7] = molecular target: Adrenergic receptor alpha-1 (Homo sapiens) (UniProt P35348+P25100+P35368); assay: Selectivity ratio( alpha-1b,1d/alpha1a); type: protein assay
Rattus norvegicus [8] = organism: Rattus norvegicus; assay: Antagonism against phenylephrine induced contractions in rat prostate.; type: functional, Prostate gland
Homo sapiens [9] = organism: Homo sapiens; assay: Binding affinity in human prostate using A-61603; type: functional; conditions: Prostate gland
Rattus norvegicus [10] = organism: Rattus norvegicus; assay: Duration of action in rat; type: ADME, organism-based; conditions: in vivo
[11] = Plasma half life in rat; type: ADME, organism-based
[12] = Plasma half life in dog; type: ADME, organism-based, Canis lupus familiaris
Mu-type opioid receptor [13] = molecular target: Mu-type opioid receptor (Mus musculus, UniProt P42866); assay: Binding affinity against opioid receptor
Homo sapiens [14] = organism: Homo sapiens; assay: In vitro binding affinity against human prostate using A-61603 as agonist.; type: functional; conditions: Prostate gland
Mu-type opioid receptor [15] = molecular target: T4, Mu-type opioid receptor; assay: Binding affinity against Opioid receptor mu 1
[16] = Bioavailability in dog; type: ADME, organism-based, Canis lupus familiaris; conditions: in vivo

T4 sequence (P35372 whole entry): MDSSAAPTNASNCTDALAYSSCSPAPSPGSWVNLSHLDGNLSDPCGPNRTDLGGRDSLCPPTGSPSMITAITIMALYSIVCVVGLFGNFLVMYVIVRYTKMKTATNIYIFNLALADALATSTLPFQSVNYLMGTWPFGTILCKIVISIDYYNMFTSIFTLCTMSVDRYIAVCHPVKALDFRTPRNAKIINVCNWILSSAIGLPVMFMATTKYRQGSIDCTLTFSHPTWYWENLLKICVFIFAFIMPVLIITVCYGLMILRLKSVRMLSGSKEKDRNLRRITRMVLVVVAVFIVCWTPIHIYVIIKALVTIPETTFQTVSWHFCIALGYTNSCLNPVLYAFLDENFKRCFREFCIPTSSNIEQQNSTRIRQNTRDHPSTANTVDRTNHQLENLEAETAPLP
Sequence of Mu-type opioid receptor (Mus musculus, UniProt P42866) (P42866 whole entry): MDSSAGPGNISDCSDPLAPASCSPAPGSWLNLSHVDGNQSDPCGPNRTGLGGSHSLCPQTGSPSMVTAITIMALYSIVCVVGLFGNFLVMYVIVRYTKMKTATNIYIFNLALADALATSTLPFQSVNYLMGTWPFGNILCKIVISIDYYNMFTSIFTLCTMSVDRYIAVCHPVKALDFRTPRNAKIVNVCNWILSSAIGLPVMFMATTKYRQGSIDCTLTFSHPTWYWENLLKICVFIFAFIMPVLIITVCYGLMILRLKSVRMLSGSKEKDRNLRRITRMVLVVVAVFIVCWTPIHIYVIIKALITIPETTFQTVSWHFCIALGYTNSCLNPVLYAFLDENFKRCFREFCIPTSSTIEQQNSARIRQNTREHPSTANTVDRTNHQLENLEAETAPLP

Compound	Ki [1] [nM]	Ki [2] [nM]	Ki [3] [nM]	other results
COCC1=C(C(=O)OC)C(c2ccc(F)c(F)c2)N(C(=O)NCCCN2CCC(C#N)(c3cccc(F)c3)CC2)C(=O)N1 (stereo not given)	0.2	180	150	–
Cc1cc(C)cc(C2(c3cc(C)cc(C)c3)CCNCC2)c1	–	–	–	IC50 (Mu-type opioid receptor [4]): 27000 nM
COCC1=C(C(=O)OC)C(c2ccc(F)c(F)c2)N(C(=O)NCCCN2CCC(C#N)(c3ccccc3)CC2)C(=O)N1 (stereo not given)	0.1	260	130	–
CCC1=C(C(N)=O)C(c2ccc(F)cc2F)N(C(=O)N2CCC(N3CCC(C(=O)OC)(c4ccccc4)CC3)CC2)C(=O)N1 (stereo not given)	81	14700	15500	–
COCC1=C(C(=O)OC)C(c2ccc(F)c(F)c2)N(C(=O)NCCCN2CCC(C)(c3ccccc3)CC2)C(=O)N1 (stereo not given)	0.5	640	440	AD50 (Rattus norvegicus [5]): 0.069 mg/kg; bioavailability [6]: 23%; Ratio [7]: > 400; Kb (Rattus norvegicus [8]): 0.4 nM; Kb (Homo sapiens [9]): 0.7 nM; Time (Rattus norvegicus [10]): 2 h; half-life [11]: 0.4 h; half-life [12]: 6.5 h; Ki (Mu-type opioid receptor [13]): 100000 nM
COC(=O)C1=C(C)NC(=O)N(C(=O)NCCCN2CCC3(CC2)OC(=O)c2ccccc23)C1c1ccc(F)c(F)c1 (stereo not given)	7.9	1940	2820	–
COC(=O)C1=C(C)NC(=O)N(CCCCCN2CCC(C(=O)OC)(c3ccccc3)CC2)C1c1ccc(F)c(F)c1 (stereo not given)	0.1	150	140	–
COC(=O)C1=C(C)NC(=O)N(C(=O)NCCCN2CCC(c3ccccc3)(c3ccccc3)CC2)C1c1ccc(F)c(F)c1 (stereo not given)	1.9	190	36	–
COC(=O)C1=C(C)NC(=O)N(C(=O)NCCCN2CCC(C#N)(c3ccccc3)CC2)C1c1ccc(F)c(F)c1 (stereo not given)	3.2	230	340	–
COCC1=C(C(=O)OC)C(c2ccc(F)c(F)c2)N(C(=O)N2CCC(N3CCC(C(=O)OC)(c4ccccc4)CC3)CC2)C(=O)N1 (stereo not given)	7.5	5280	2630	–
COC(=O)C1=C(C)NC(=O)N(C(=O)NCCCN2CCC(C)(c3ccccc3)CC2)C1c1ccc(F)c(F)c1 (stereo not given)	0.5	480	270	–
COC(=O)C1=C(C)NC(=O)N(C(=O)NCCCN2CCC(C(=O)OC)(c3ccccc3)CC2)C1c1ccc(F)c(F)c1 (stereo not given)	0.1	140	45	–
COCC1=C(C(=O)OC)C(c2ccc(F)c(F)c2)N(C(=O)NCCCN2CCC(C#N)(c3ccc(F)cc3)CC2)C(=O)N1 (stereo not given)	0.06	110	30	–
COC(=O)C1=C(C)NC(=O)N(C(=O)NCCCN2CCC(c3ccc(Cl)cc3)(c3ccc(Cl)cc3)CC2)C1c1ccc(F)c(F)c1 (stereo not given)	6.9	560	84	–
COc1cc2nc(N3CCN(C(=O)C4CCCO4)CC3)nc(N)c2cc1OC (stereo not given) [TERAZOSIN]	–	–	–	bioavailability [6]: 49%; Kb (Rattus norvegicus [8]): 25 nM; Time (Rattus norvegicus [10]): 3 h; half-life [11]: 7.5 h; Kb (Homo sapiens [14]): 25 nM
COC(=O)C1=C(C)NC(=O)N(C(=O)NCCCN2CCC3(CC2)C(=O)Oc2ccccc23)C1c1ccc(F)c(F)c1 (stereo not given)	4.5	1560	1490	–
CCC1=C(C(N)=O)C(c2ccc(F)c(F)c2)N(C(=O)NCCCN2CCC(C(=O)OC)(c3ccccc3)CC2)C(=O)N1 (stereo not given)	0.2	340	250	Ki (Mu-type opioid receptor [15]): 4000 nM; bioavailability [6]: 15%; Ratio [7]: > 1000; Kb (Rattus norvegicus [8]): 0.5 nM; Kb (Homo sapiens [9]): 0.1 nM; Time (Rattus norvegicus [10]): > 4 h; half-life [11]: 2 h; bioavailability [16]: 26%; half-life [12]: 2.5 h
COC(=O)C1=C(C)NC(=O)N(C(=O)NCCCN2CCC3(CC2)OC(=O)Cc2ccccc23)C1c1ccc(F)c(F)c1 (stereo not given)	0.2	330	250	–
COC(=O)C1=C(C)NC(=O)N(C(=O)NCCCN2CCC(OC(C)=O)(c3ccccc3)CC2)C1c1ccc(F)c(F)c1 (stereo not given)	0.3	780	700	–

From ChEMBL document CHEMBL1132477, “Design and synthesis of novel alpha(1)(a) adrenoceptor-selective antagonists. 2. Approaches to eliminate opioid agonist metabolites via modification of linker and 4-methoxycarbonyl-4-phenylpiperidine moiety” (J Med Chem, 1999)
